Two compounds from patent US7655689B2, “Fused heterocyclic succinimide compounds and analogs thereof, modulators of nuclear hormone receptor function” (Bristol-Myers Squibb Company, priority 2000, dated 2010) can be followed below.

Where two headings read alike, the source gives them in different places.

The target in one test is glucocorticoid receptor (Homo sapiens, UniProt P04150). The settings on record: concentration ≦10 μM, A549 cells. The method, then: A549 cells, which contain endogenous glucocorticoid receptor, were stably transfected with an AP-1 DNA binding site attached to the luciferase gene. […] Cells are plated the day before the assay at approximately 40000 cells/well. […] Activity is measured by analysis in a luminometer as compared to control experiments treated with buffer or dexamethasome.

The target in test [1] is T1, AR (Rattus norvegicus, UniProt P15207).
T1 sequence (P15207 1-902): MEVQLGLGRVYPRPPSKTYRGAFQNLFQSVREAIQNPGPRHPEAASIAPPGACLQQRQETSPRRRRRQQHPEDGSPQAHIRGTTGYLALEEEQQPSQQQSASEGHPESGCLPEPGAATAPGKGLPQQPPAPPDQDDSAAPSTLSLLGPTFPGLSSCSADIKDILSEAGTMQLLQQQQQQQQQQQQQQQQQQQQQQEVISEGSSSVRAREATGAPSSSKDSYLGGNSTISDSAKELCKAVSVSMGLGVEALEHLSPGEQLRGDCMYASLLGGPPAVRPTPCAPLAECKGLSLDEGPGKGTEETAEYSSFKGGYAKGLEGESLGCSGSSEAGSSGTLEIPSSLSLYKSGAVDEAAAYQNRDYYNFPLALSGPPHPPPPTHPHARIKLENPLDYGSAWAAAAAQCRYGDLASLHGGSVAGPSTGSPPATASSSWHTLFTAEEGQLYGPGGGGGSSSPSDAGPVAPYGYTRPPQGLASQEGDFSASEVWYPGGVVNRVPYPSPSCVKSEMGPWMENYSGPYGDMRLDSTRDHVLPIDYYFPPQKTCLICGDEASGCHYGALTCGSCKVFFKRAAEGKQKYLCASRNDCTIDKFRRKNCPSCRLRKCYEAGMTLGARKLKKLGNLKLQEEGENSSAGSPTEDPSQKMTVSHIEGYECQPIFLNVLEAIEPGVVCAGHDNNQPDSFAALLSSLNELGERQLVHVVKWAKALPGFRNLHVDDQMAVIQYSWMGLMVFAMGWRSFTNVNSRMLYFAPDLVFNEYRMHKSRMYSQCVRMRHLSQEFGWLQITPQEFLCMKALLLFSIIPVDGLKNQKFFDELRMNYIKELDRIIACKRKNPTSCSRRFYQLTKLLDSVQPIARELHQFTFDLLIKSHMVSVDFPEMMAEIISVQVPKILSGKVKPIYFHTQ
From the text: The activity of compounds of the present invention as AR agonists was investigated in an immature male rat model, a recognized test of anabolic effects in muscle and sustaining effects in sex organs for a given compound, as described in L. G. Hershberger et al., Proc. Soc. […] Yak. Ken. Nem.
The basis of this assay lies in the well-defined action of androgenic agents on the maintenance and growth of muscle tissues and sexual accessory organs in animals and man. […] J. Anat. […] I. Quantitative data” Boll.-Soc. Ital. Biol. Sper. […] II. Electron-microscopic observations” Boll.-Soc. Ital. Biol. Sper. […] As described above, the effects of androgens on maintenance of male sexual accessory organs, such as the prostate and seminal vesicles, is well described. Castration results in rapid involution and atrophy of the prostate and seminal vesicles. This effect can be reversed by exogenous addition of androgens. Since both the levator ani muscle and the male sex organs are the tissues most responsive to the effects of androgenic agents, this model is used to determine the androgen dependent reversal of atrophy in the levator ani muscle and the sex accessory organs in immature castrated rats. Sexually mature rats (200-250 g, 6-8 weeks-old, Sprague-Dawley, Harlan) were acquired castrated from the vendor (Taconic). […]

Test [2] has as its target T1, AR. This is another data set of the same source.

glucocorticoid receptor, sequence (P04150 whole entry): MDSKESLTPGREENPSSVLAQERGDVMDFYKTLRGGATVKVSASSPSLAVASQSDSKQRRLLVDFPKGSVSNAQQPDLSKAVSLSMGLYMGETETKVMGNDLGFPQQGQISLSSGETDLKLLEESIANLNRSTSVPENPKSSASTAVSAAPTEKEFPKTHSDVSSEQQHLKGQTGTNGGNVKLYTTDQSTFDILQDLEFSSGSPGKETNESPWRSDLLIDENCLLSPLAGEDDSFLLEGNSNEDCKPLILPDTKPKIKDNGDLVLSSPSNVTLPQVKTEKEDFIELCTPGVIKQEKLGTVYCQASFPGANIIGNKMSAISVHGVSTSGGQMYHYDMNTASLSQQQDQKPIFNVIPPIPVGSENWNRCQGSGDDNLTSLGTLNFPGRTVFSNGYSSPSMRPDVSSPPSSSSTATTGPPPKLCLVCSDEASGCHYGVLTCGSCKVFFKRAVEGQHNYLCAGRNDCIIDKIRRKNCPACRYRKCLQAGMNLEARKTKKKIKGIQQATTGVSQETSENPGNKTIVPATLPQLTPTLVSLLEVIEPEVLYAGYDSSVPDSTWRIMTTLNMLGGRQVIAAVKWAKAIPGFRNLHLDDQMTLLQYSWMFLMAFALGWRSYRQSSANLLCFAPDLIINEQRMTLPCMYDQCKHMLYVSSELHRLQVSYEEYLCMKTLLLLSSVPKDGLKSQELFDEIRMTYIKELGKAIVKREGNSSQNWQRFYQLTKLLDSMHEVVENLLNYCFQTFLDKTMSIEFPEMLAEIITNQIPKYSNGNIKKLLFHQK

Turning to `C[C@@H]1C[C@H]2[C@@H]3CCC4=CC(=O)C=C[C@]4(C)[C@@]3(F)[C@@H](O)C[C@]2(C)[C@@]1(O)C(=O)CO` [dexamethasone], the “suppression of activity (% inhibition of the reporter system vs buffer control with 10 ng/ml PMA)” value at glucocorticoid receptor is about 65%.

As for `CCC(=O)O[C@H]1CC[C@H]2[C@@H]3CCC4=CC(=O)CC[C@]4(C)[C@H]3CC[C@]12C` [testosterone propionate, Testosterone Propionate], the “EC50 (increase in organ weight)” value on AR [1] (castrated rats) and on AR [2] (immature castrated rats) was about 0.03 mg throughout. In addition, the “potency relative to free T” value is 10-30 fold on AR [1] (organ weight increase) and 10-30 fold on AR [2] (organ weight increase, immature castrated rats). This compound also gave an ED80 at AR [2] (immature castrated rat model) of 0.1 mg.
